Assay results taken from patent US7851626B2, “4,4,5,5, tetrasubstituted imidazolines” (Hoffmann-La Roche Inc., priority 2005, dated 2010).

Biological target: interaction between p53 and MDM2 proteins (Homo sapiens, UniProt Q00987)
Test: HTRF assay of inhibition of the p53-MDM2 interaction (GST-MDM2 and biotinylated p53 peptide)
Format: binding
Conditions: recombinant GST-tagged MDM2, biotinylated p53 peptide, 37° C. for 1 h
Experimental: The ability of the compounds to inhibit the interaction between p53 and MDM2 proteins was measured by an HTRF (homogeneous time-resolved fluorescence) assay in which recombinant GST-tagged MDM2 binds to a peptide that resembles the MDM2-interacting region of p53 (Lane et al.). Binding of GST-MDM2 protein and p53-peptide (biotinylated on its N-terminal end) is registered by the FRET (fluorescence resonance energy transfer) between Europium (Eu)-labeled anti-GST antibody and streptavidin-conjugated Allophycocyanin (APC).
Test is performed in black flat-bottom 384-well plates (Costar) in a total volume of 40 uL containing: 90 nM biotinylate peptide, 160 ng/mL GST-MDM2, 20 nM streptavidin-APC (PerkinElmerWallac), 2 nM Eu-labeled anti-GST-antibody (PerkinElmerWallac), 0.2% bovine serum albumin (BSA), 1 mM dithiothreitol (DTT) and 20 mM Tris-borate saline (TBS) buffer as follows: Add 10 uL of GST-MDM2 (640 ng/mL working solution) in reaction buffer to each well. […] Incubate at 37° C. for 1 h. […] If not specified, the reagents were purchased from Sigma Chemical Co.

Sequence of interaction between p53 and MDM2 proteins (Q00987 whole entry): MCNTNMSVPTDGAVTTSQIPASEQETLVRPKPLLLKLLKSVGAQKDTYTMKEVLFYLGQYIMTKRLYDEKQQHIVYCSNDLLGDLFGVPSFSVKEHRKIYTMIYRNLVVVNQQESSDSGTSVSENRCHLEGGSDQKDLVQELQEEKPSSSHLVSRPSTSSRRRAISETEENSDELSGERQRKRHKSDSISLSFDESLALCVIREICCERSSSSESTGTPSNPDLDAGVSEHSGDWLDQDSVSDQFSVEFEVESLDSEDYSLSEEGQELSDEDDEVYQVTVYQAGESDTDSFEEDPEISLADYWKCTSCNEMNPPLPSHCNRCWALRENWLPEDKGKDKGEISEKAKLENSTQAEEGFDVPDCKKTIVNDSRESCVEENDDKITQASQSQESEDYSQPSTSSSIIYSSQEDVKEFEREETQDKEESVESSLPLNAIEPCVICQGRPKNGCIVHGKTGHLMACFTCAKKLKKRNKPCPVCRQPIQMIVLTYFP

Compound COc1ccc(C2=N[C@@](C)(c3ccc(Cl)cc3)[C@@H](c3ccc(Cl)cc3)N2C(=O)N2CCN(C(C)=O)CC2)c(OC(C)C)c1 (racemic) [Example 190, rac-1-{4-[(4S*,5R*)-4,5-Bis-(4-chloro-phenyl)-2-(2-isopropoxy-4-methoxy-phenyl)-4-methyl-4,5-dihydro-imidazole-1-carbonyl]-piperazin-1-yl}-ethanone] has an IC50 of 48 nM.

In the case of CCOc1cc(S(=O)(=O)N2CCCC2)ccc1C1=N[C@@](C)(c2ccc(Cl)cc2)[C@@](C)(c2ccc(Cl)cc2)N1C(=O)N1CCN(CC(N)=O)CC1 [Example 35, 2-(4-{(4S,5R)-4,5-Bis-(4-chloro-phenyl)-2-[2-ethoxy-4-(pyrrolidine-1-sulfonyl)-phenyl]-4,5-dimethyl-4,5-dihydro-imidazole-1-carbonyl}-piperazin-1-yl)-acetamide], the IC50 is reported as 17 nM.

CCOc1cc(C(C)(C)C)ccc1C1=N[C@@](C)(c2ccc(Cl)cc2)[C@@H](c2ccc(Cl)cc2)N1C(=O)N1CCN(C(C)=O)CC1 [Example 177, 1-{4-[(4S,5R)-2-(4-tert-Butyl-2-ethoxy-phenyl)-4,5-bis-(4-chloro-phenyl)-4-methyl-4,5-dihydro-imidazole-1-carbonyl]-piperazin-1-yl}-ethanone] showed an IC50 of 107 nM.
